What was measured:
[1] = system: tubulin in MCF-7 breast cancer cells; assay: Immunofluorescence confocal microscopy of microtubules; assay type: cell-based, human; settings: 16 h, 22b 10 μM, paclitaxel and phenstatin 1 μM
Experimental: Briefly, the MCF-7 cells were seeded at a density of 1 × 10^5 cells/mL on eight chamber glass slides (BD Biosciences). […] The cells were then washed in PBS, fixed for 20 min with 4% paraformaldehyde in PBS, and permeabilized in 0.5% Triton X-100. […] Images of the cells were obtained using Leica SP8 confocal microscopy (Wetzlar, Germany) with Leica application suite X software (Wetzlar, Germany). Experiments were performed on three independent occasions.
The micrograph images were obtained with Leica SP8 confocal microscopy utilizing Leica application suite X software. Representative confocal images of three separate experiments are shown. The scale bar indicates 25 μm.

CYP1A1 = CYP1A1 (Homo sapiens, UniProt P04798); assay: Cytochrome P450 assay (DBF fluorescence)
[2] = system: MCF-7 breast cancer cells; assay: Annexin V/PI apoptotic assay; assay type: cell-based, human
Experimental: (§1) Apoptotic cell death was monitored by flow cytometry using Annexin V and propidium iodide (PI) to determine the Annexin V and PI negative cells (Q4, healthy cells), Annexin V positive and PI negative cells (Q3, early apoptosis), Annexin V and PI positive cells (Q2, late apoptosis), and Annexin V negative and PI-positive cells (Q1, necrosis) cells. MCF-7 and MDA-MB-231 cells for this experiment were seeded in 6-well plates at a density of 1 × 10^5 cells/mL (3 mL). Following the protocol previously described, the cells were treated at 37 °C with either vehicle (0.1% (v/v) EtOH), phenstatin 19c, (0.1 μM and 0.5 μM), or 22b (0.1 μM, 0.5 μM and 1 μM) at the 48 h time point. Cells were harvested by centrifugation at 400× g using a temperature-controlled Sorvall centrifuge and then prepared for flow cytometric analysis. Cells were washed in Annexin V Binding Buffer 1X (binding buffer: 0.1 M 4-(2-hydroxyethyl)-1-piperazineethanesulfonic acid (HEPES), pH 7.4; 1.4 M NaCl; 25 mM CaCl2 diluted in dH2O, 0.5 mL), and incubated in the dark for 30 min on ice in Annexin V-containing binding buffer (1:100), 50 μL protected from light. Cells were then washed once in binding buffer and then re-suspended in a PI-containing binding buffer (1:1,000) (0.5 μg/mL, 500 μL) and immediately analyzed within 1 h to determine the populations produced. BD Accuri flow cytometer (BD Biosciences, 2350 Qume Dr, San Jose, CA, USA) and GraphPad Prism software were used for the analysis of the data (GraphPad Software, Inc., 2365 Northside Dr., Suite 560, San Diego, CA, USA).
(§2) Figure 11 Compound 22b induced apoptosis in (A) MCF-7 breast cancer cells and (B) MDA-MB-231 breast cancer cells. MCF-7 breast cancer cells (A) and MDA-MB-23 breast cancer cells (B) were treated with 22b (0.1, 0.5, and 1.0 μM) or phenstatin (19c) (0.1 μM and 0.5 μM) or control vehicle (0.1% ethanol (v/v)). The data shown for the control vehicle and phenstatin are as we previously reported. The apoptotic cell content was determined by staining with Annexin V-FITC and PI. […]

[3] = system: MDA-MB-231 breast cancer cells; assay: Annexin V/PI apoptotic assay; assay type: cell-based, human
Experimental: as §1, §2

[4] = system: MDA-MB-231 breast cancer cells; assay: alamarBlue cell viability assay; assay type: cell-based; settings: Homo sapiens
Experimental: HL-60 cells were suspension cells and the seeding density for the viability assay was 25,000 cells/mL. MCF-7 cells (adherent) were cultured in Minimum Essential Media (MEM) with GlutaMAX™-I, supplemented with 1% (v/v) non-essential amino acids, 10% (v/v) fetal bovine serum (FBS), purchased from BD Biosciences (Edmund Halley Road, Oxford, UK), and 1% (v/v) penicillin/streptomycin 5000 U/mL. The MCF-7 cells used in the screening of the compounds during these experiments were mycoplasma-free. The seeding density of MCF-7 in the viability assay was 25,000 cells/mL and 50,000 cells/mL in the FACS assay. […]
The biochemical assays were performed in triplicate and on at least three independent occasions to facilitate the determination of mean values. […] Adherent cells such as MCF-7, MDA-MB-231, and MCF-10A were trypsinized to detach them from the flask, counted as previously described, and seeded in 96 well plates with a seeding density of 25,000 cells /mL (200 µL of suspension in each well so that the final number of cells per well was 5000) and 1 × 10^4 cells/well seeding density for suspension HL-60 cells. […] After 72 h, the change in color was measured by spectrofluorimetry at an excitation wavelength of 544 nm and emission wavelength of 590 nm. […]

Sequence of CYP1A1 (P04798 whole entry): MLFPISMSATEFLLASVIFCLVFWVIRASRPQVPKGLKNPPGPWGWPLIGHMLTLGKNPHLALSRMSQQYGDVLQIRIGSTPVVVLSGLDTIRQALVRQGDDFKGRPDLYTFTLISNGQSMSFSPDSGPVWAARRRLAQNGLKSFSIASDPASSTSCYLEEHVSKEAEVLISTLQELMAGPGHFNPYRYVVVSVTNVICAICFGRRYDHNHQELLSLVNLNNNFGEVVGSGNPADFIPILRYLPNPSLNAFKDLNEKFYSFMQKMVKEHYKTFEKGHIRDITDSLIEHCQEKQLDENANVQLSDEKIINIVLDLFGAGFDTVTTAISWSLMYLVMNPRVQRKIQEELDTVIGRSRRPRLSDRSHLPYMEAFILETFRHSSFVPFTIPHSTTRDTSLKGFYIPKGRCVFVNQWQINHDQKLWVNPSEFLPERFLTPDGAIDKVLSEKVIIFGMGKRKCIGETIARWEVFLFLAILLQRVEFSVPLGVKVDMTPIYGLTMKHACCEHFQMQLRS

COc1ccc(/C=C/C(c2cc(OC)c(OC)c(OC)c2)n2cncn2)cc1O (stereo not drawn) [Compound 22b, (E)-5-(3-(1H-1,2,4-Triazol-1-yl)-3-(3,4,5-trimethoxyphenyl)prop-1-en-1-yl)-2-methoxyphenol]
effect on microtubule network [1]: disorganized microtubule network structure similar to that observed with phenstatin, together with multinucleation | IC50 (CYP1A1): > 53000 nM | cells undergoing apoptosis (early + late) ([2]; 0.5 μM): 21% | cells undergoing apoptosis (early + late) ([2]; 1 μM): 33% | viability at 0.1 µM ([2]; Homo sapiens, MCF7, 0.1 μM, Figure 11A): 82.8% | viability at 0.5 µM ([2]; Homo sapiens, MCF7, 0.5 μM, Figure 11A): 78.1% | viability at 1 µM ([2]; Homo sapiens, MCF7, 1 μM, Figure 11A): 60.6% | cells in apoptosis ([3]; 0.1 μM): 5.9% | cells in apoptosis ([3]; 0.5 μM): 6.5% | cells in apoptosis ([3]; 1.0 μM): 20.8% | viability at 0.1 µM ([3]; Homo sapiens, 0.1 μM, Figure 11B): 92.8% | viability at 0.5 µM ([3]; Homo sapiens, 0.5 μM, Figure 11B): 92.1% | viability at 1 µM ([3]; Homo sapiens, 1 μM, Figure 11B): 77.6% | IC50 [4]: 770 nM | IC50 ([4]; 72 h): 765 ± 30 nM
